According to patent US12065428B2, “Anti-viral compounds” (Aligos Therapeutics, Inc., priority 2021, dated 2024):
Like-named read-outs stand apart in the source and are kept apart here.

Experiments:
[1] = tested on: human beta-coronavirus OC43; assay: OC43 coronavirus assay in HeLa cells (cytopathic effect, cell-titer-glo); format: cell-based; settings: Betacoronavirus 1, 144 h; OC43 in HeLa cells, 6 days at 33° C.; class symbols; read-out: EC50
[2] = Cytotoxicity plates without OC43 virus in HeLa cells; format: cell-based; settings: human, HeLa cells (uninfected)
Method: The human beta-coronavirus OC43 was purchased from ATCC (Manassas, VA) and propagated using HCT-8 human colorectal epithelial cells (ATCC). HeLa human cervical epithelial cells (ATCC) were used as susceptible host cell lines and were cultured using EMEM media, supplemented with 10% fetal bovine serum (FBS), 1% (v/v) penicillin/streptomycin (P/S), 1% (v/v) HEPES and 1% (v/v) cellgro Glutagro™ supplement (all Corning, Manassas, VA) at 37° C. For the OC43 antiviral assay, 1.5×10^4 HeLa cells per well were plated in 100 μL complete media in white 96-well plates with clear bottoms at 37° C. for up to 24 h to facilitate attachment and allow cells to recover from seeding stresses. Next day, the cell culture medium was removed. Serially diluted compounds in 100 μL assay media (EMEM, 2% FBS, 1% P/S, 1% cellgro Glutagro™ supplement, 1% HEPES) were added to the cells and incubated for 4H at 37° C. in a humidified 5% CO2 incubator. 100 μL of OC43 virus stock was diluted to a concentration known to produce optimal cytopathic effect, inducing 80-90% reduction in cell viability. 96-well plates were incubated for 6 (HeLa) days at 33° C.; each plate contains uninfected control wells as well as virus-infected wells that were not treated with compound. Cytotoxicity plates without the addition of OC43 virus were carried out in parallel. At the end of the incubation period, 100 μL cell culture supernatant was replaced with 100 μL cell-titer-glo reagent (Promega, Madison, WI) and incubated for at least 10 min at rt prior to measuring luminescence. Luminescence was measured on a Perkin Elmer (Waltham, MA) Envision plate reader. Antiviral % inhibition was calculated as follows: [(Compound treated cells infected sample)−(no compound infected control)]/[(Uninfected control)−(no compound infected control)]*100; Using GraphPad (San Diego, CA) prism software version 8.3.1, the antiviral dose-response plot was generated as a sigmoidal fit, log(inhibitor) vs response-variable slope (four parameters) model and the EC50 was calculated which is the predicted compound concentration corresponding to a 50% inhibition of the viral cytopathic effect.

[3] = biological target: T1, HRV3C (Human rhinovirus 14, UniProt P03303); assay: biochemical; settings: read-out: HRV IC50
T1 construct: SARS-Cov-2 3CLpro and HRV3C Duplex Assay
T1 sequence (P03303 1538-1719): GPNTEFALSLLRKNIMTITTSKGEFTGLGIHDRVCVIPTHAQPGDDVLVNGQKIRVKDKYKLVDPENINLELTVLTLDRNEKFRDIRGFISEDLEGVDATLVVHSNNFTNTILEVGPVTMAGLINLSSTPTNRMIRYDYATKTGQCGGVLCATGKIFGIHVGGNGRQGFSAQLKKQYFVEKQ

[4] = tested on: SARS-CoV-2-GHB-03021/2020; assay: microbe, parasite or virus in culture; format: cell-based; settings: Severe acute respiratory syndrome coronavirus 2, Vero C1008, 96 h; read-out: VeroE6 + CP (EC50)
[5] = biological target: T2, human cathepsin L (Homo sapiens, UniProt P07711); assay: Cathepsin L assay (Z-FR-AMC fluorescence); format: biochemical; settings: 10 pM human cathepsin L, 30 mins preincubation; class symbols
T2 construct: purchased R&D Systems
T2 sequence (P07711 114-333): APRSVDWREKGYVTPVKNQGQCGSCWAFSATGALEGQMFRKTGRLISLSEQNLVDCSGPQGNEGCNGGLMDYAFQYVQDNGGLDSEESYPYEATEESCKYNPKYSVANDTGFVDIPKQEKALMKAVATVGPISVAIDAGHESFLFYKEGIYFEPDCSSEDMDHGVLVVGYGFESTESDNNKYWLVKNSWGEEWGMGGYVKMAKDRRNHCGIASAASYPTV
Method: For the cathepsin L assay, 10 pM of human cathepsin L (R&D Systems; Minneapolis, MN) was preincubated for 30 mins with test compounds. Reactions were initiated by the addition of a peptide substrate Z-FR-AMC (final concentration 2 μM, Anaspec; Fremont, CA). Fluorescence was measured at 2-minute intervals for 30 mins using a 355/460 excitation/emission filter module on an Envision plate reader (Perkin Elmer; Waltham, MA). The IC50 values were calculated for each assay by fitting the curves using a four-parameter equation in GraphPad Prism.

[6] = biological target: T3, SARS-Cov-2 3CLpro (Severe acute respiratory syndrome coronavirus 2, UniProt P0DTD1); assay: SARS-Cov-2 3CLpro and HRV3C duplex assay (SAMDI-MS): 3CLpro; format: biochemical; settings: 3CLpro, duplex assay, 30 mins preincubation; class symbols; read-out: SARS-Cov-2 IC50
T3 construct: SARS-Cov-2 3CLpro and HRV3C Duplex Assay

[7] = HRV3C, duplex assay, 30 mins preincubation, class symbols

| Structure (SMILES) | EC50 [1] | CC50 at 6 days ([2]; class symbols) | IC50 [3, 7] | EC50 [4] | IC50 [5] | IC50 [6] | IC50 [3] | CC50 at 6 days ([2]; numeric bound, unit inferred) |
| --- | --- | --- | --- | --- | --- | --- | --- | --- |
| O=C(NC1CC1)C(=O)C(C[C@@H]1CCNC1=O)NC(=O)[C@@H]1[C@@H]2C[C@@H](CC23CC3)N1C(=O)c1nc(-c2ccccc2)cs1 (stereo partly drawn) [Compound 26, N-cyclopropyl-2-oxo-4-[(3S)-2-oxopyrrolidin-3-yl]-3-[(1R,4S,6S)-5-(4-phenyl-1,3-thiazole-2-carbonyl)-5-azaspiro[bicyclo[2.2.1]heptane-2,1′-cyclopropan]-6-ylformamido]butanamide] | 1000 to 10000 nM | ≥ 100000 nM | 200 to 2000 nM | 1000 to 10000 nM | ≥ 10000 nM | 200 to 2000 nM | – | – |
| CC(C)n1c(C(=O)N2CCC3(CC3)C[C@H]2C(=O)N[C@@H](C[C@@H]2CCNC2=O)C(=O)C(=O)NC2CC2)cc2ccccc21 [Compound 27] | 100 to 1000 nM | ≥ 100000 nM | 200 to 2000 nM | < 1000 nM | ≥ 10000 nM | < 20 nM | – | – |
| O=C(NC1CC1)C(=O)[C@H](C[C@@H]1CCNC1=O)NC(=O)[C@@H]1CC2(CCN1C(=O)c1csc3ccccc13)CC2 [Compound 28] | 1000 to 10000 nM | ≥ 100000 nM | 20 to 200 nM | < 1000 nM | ≥ 10000 nM | < 20 nM | – | – |
| COc1ccc2cc(C(=O)N3CCC4(CC4)C[C@H]3C(=O)N[C@@H](C[C@@H]3CCNC3=O)C(=O)C(=O)NC3CC3)n(C)c2c1 [Compound 29] | 100 to 1000 nM | ≥ 100000 nM | 2000 to 20000 nM | < 1000 nM | ≥ 10000 nM | < 20 nM | – | – |
| Cc1ccc2cc(C(=O)N3CCC4(CC4)C[C@H]3C(=O)N[C@@H](C[C@@H]3CCNC3=O)C(=O)C(=O)NC3CC3)n(C)c2c1 [Compound 30] | 100 to 1000 nM | ≥ 100000 nM | – | < 1000 nM | ≥ 10000 nM | 20 to 200 nM | > 10000 nM | – |
| Cn1c(C(=O)N2CCC3(CC3)C[C@H]2C(=O)N[C@@H](C[C@@H]2CCNC2=O)C(=O)C(=O)NC2CC2)cc2ccc(Cl)cc21 [Compound 31] | 100 to 1000 nM | ≥ 100000 nM | 2000 to 20000 nM | < 1000 nM | ≥ 10000 nM | < 20 nM | – | – |
| O=C(NC1CC1)C(=O)[C@H](C[C@@H]1CCNC1=O)NC(=O)[C@@H]1CC2(CCN1C(=O)[C@@H]1CCCc3ccccc31)CC2 [Compound 32] | 1000 to 10000 nM | ≥ 100000 nM | 200 to 2000 nM | < 1000 nM | ≥ 10000 nM | 20 to 200 nM | – | – |
| O=C(NC1CC1)C(=O)[C@H](C[C@@H]1CCNC1=O)NC(=O)[C@@H]1CC2(CCN1C(=O)[C@H]1CCCc3ccccc31)CC2 [Compound 33] | 1000 to 10000 nM | ≥ 100000 nM | 200 to 2000 nM | < 1000 nM | ≥ 10000 nM | 20 to 200 nM | – | – |
| CC(C)(C)[C@H](NC(=O)C(F)(F)F)C(=O)N1CCC2(CC2)C[C@H]1C(=O)N[C@H](C#N)C[C@@H]1CCNC1=O [Compound 35, (S)—N—((S)-1-cyano-2-((S)-2-oxopyrrolidin-3-yl)ethyl)-6-((S)-3,3-dimethyl-2-(2,2,2-trifluoroacetamido)butanoyl)-6-azaspiro[2.5]octane-5-carboxamide] | 100 to 1000 nM | ≥ 100000 nM | – | < 1000 nM | ≥ 10000 nM | < 20 nM | > 10000 nM | – |
| COc1cccc(-c2csc(C(=O)N3CCC4(CC4)C[C@H]3C(=O)N[C@@H](C[C@@H]3CCNC3=O)C(=O)C(=O)NC3CC3)n2)c1 [Compound 36] | 100 to 1000 nM | – | 2000 to 20000 nM | 1000 to 10000 nM | ≥ 10000 nM | 200 to 2000 nM | – | > 100000 nM |
| COc1ccc(-c2csc(C(=O)N3CCC4(CC4)C[C@H]3C(=O)N[C@@H](C[C@@H]3CCNC3=O)C(=O)C(=O)NC3CC3)n2)cc1 [Compound 37] | 100 to 1000 nM | – | 200 to 2000 nM | 1000 to 10000 nM | ≥ 10000 nM | 200 to 2000 nM | – | > 100000 nM |
